Here are results for six molecules from ChEMBL document CHEMBL1157989, “Novel antioxidant compounds from tart cherries (Prunus cerasus)” (J Nat Prod, 1999).

The source made the active and inactive calls. The rule behind the calls is not given here.

The first assay is described as follows: Antioxidant activity against Fe2+-induced lipid peroxidation at 20 uM by fluorescence spectroscopy. It counts as functional.
Consider `O=C(/C=C/c1ccc(O)c(O)c1)OC1[C@H](O)CC[C@@H]1O` (stereo partly specified), for which the Activity amounted to 80%.

For `Cc1cc(C(C)(C)C)c(O)c(C(C)(C)C)c1`, the Activity is over 90%.

For `COC(=O)[C@]1(O)C[C@@H](O)[C@@H](O)[C@H](OC(=O)/C=C/c2ccc(O)c(O)c2)C1`, the Activity is 50%.

The molecule `CC(C)(C)c1cc(O)ccc1O` gave an Activity of over 90%.

Take `O=C(/C=C/c1ccc(O)c(O)c1)O[C@@H]1CC[C@@H](O)[C@H]1O`: the Activity was 80%.

A further assay can be described thus: Antioxidant activity against Fe2+-induced lipid peroxidation at 100 uM by fluorescence spectroscopy. It counts as functional.
Take `O=C(O)C(O)Cc1ccccc1O` (racemic): the result was inactive.
